Assay results reported in article PMC7385619, “A triple action CDK4/6-PI3K-BET inhibitor with augmented cancer cell cytotoxicity” (Cell Discovery, 2020).
Like-named read-outs stand apart in the source and are kept apart here.

Tests used:
Assay in all cases: KINOMEscan assay (Eurofins DiscoverX)
Assay type in all cases: binding
kinome (kinase panel) [1] = target: T1, kinome (kinase panel) (Homo sapiens, UniProt P54762); conditions: EPHB1; 1000 nM; read-out: Percent Control
T1 construct: purchased Eurofins DiscoverX

kinome (kinase panel) [2] = target: T2, kinome (kinase panel) (Homo sapiens, UniProt P36894); conditions: BMPR1A; 1000 nM; read-out: Percent Control
T2 construct: purchased Eurofins DiscoverX
T2 sequence (P36894 24-532): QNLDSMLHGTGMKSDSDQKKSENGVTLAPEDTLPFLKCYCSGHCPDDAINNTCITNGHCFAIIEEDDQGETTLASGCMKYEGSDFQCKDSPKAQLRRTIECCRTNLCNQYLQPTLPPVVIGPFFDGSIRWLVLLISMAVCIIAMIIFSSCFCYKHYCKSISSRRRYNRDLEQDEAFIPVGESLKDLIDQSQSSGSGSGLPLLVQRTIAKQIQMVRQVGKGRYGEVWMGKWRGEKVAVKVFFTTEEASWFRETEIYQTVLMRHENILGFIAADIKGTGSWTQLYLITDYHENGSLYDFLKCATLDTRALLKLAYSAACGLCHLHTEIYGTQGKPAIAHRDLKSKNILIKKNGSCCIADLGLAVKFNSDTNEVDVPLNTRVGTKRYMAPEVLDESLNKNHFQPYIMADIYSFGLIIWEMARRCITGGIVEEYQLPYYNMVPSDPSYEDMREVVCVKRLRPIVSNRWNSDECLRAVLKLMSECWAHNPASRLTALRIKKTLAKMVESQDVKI

kinome (kinase panel) [3] = target: T3, kinome (kinase panel) (Homo sapiens, UniProt P08581, Y1235D); conditions: […]; 1000 nM; read-out: Percent Control
T3 construct: purchased Eurofins DiscoverX

kinome (kinase panel) [4] = target: T4, kinome (kinase panel) (Homo sapiens, UniProt O14730); conditions: RIOK3; 1000 nM; read-out: Percent Control
T4 construct: purchased Eurofins DiscoverX
T4 sequence (O14730 whole entry): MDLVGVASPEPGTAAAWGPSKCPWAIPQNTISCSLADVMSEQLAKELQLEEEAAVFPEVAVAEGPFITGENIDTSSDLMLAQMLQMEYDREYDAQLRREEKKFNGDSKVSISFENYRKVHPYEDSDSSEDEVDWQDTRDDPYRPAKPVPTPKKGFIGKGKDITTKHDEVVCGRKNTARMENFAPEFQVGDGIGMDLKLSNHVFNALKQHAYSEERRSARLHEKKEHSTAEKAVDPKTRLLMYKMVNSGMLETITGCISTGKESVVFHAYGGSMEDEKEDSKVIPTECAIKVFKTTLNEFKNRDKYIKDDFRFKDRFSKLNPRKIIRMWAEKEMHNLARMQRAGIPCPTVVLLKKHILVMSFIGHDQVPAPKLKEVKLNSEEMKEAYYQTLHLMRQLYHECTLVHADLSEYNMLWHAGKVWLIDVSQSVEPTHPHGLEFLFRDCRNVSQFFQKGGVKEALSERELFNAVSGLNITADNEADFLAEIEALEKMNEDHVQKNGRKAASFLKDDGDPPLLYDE

kinome (kinase panel) [5] = target: T5, kinome (kinase panel) (Homo sapiens, UniProt Q99558); conditions: NIK (Entrez MAP3K14); 1000 nM; read-out: Percent Control
T5 construct: purchased Eurofins DiscoverX

kinome (kinase panel) [6] = target: T6, kinome (kinase panel) (Homo sapiens, UniProt P10721, D816H); conditions: […]; 1000 nM; read-out: Percent Control
T6 construct: purchased Eurofins DiscoverX

kinome (kinase panel) [7] = target: T7, kinome (kinase panel) (Homo sapiens, UniProt Q8IWQ3); conditions: BRSK2; 1000 nM; read-out: Percent Control
T7 construct: purchased Eurofins DiscoverX

kinome (kinase panel) [8] = target: T8, kinome (kinase panel) (Homo sapiens, UniProt Q9P0L2); conditions: MARK1; 1000 nM; read-out: Percent Control
T8 construct: purchased Eurofins DiscoverX

kinome (kinase panel) [9] = target: T9, kinome (kinase panel) (Homo sapiens, UniProt Q96BR1); conditions: SGK3; 1000 nM; read-out: Percent Control
T9 construct: purchased Eurofins DiscoverX

kinome (kinase panel) [10] = target: T10, kinome (kinase panel) (Homo sapiens, UniProt O60331); conditions: PIP5K1C; 1000 nM; read-out: Percent Control
T10 construct: purchased Eurofins DiscoverX

kinome (kinase panel) [11] = target: T11, kinome (kinase panel) (Homo sapiens, UniProt P11802); conditions: 1000 nM, read-out: Percent Control
T11 construct: purchased Eurofins DiscoverX
T11 sequence (P11802 whole entry): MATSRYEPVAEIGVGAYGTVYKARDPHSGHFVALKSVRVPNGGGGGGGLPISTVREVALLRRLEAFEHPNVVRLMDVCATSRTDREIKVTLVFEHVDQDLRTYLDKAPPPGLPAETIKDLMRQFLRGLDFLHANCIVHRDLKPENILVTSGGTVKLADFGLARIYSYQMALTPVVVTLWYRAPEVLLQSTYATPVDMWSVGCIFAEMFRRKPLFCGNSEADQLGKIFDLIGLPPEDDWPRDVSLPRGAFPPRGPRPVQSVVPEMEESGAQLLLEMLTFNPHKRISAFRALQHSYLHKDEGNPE

kinome (kinase panel) [12] = target: T12, kinome (kinase panel) (Homo sapiens, UniProt P42336, E542K); conditions: read-out: Percent Control
T12 construct: purchased Eurofins DiscoverX

kinome (kinase panel) [13] = target: T13, kinome (kinase panel) (Homo sapiens, UniProt Q09013); conditions: DMPK; 1000 nM; read-out: Percent Control
T13 construct: purchased Eurofins DiscoverX

kinome (kinase panel) [14] = target: T14, kinome (kinase panel) (Homo sapiens, UniProt P42336, Q546K); conditions: read-out: Percent Control
T14 construct: purchased Eurofins DiscoverX

kinome (kinase panel) [15] = target: T15, kinome (kinase panel) (Homo sapiens, UniProt P53778); conditions: p38-gamma (Entrez MAPK12); 1000 nM; read-out: Percent Control
T15 construct: purchased Eurofins DiscoverX

kinome (kinase panel) [16] = target: T16, kinome (kinase panel) (Homo sapiens, UniProt P00519, E255K); conditions: read-out: Percent Control
T16 construct: purchased Eurofins DiscoverX

kinome (kinase panel) [17] = target: T17, kinome (kinase panel) (Homo sapiens, UniProt P00533, T790M); conditions: […]; 1000 nM; read-out: Percent Control
T17 construct: purchased Eurofins DiscoverX

kinome (kinase panel) [18] = target: T18, kinome (kinase panel) (Homo sapiens, UniProt Q5S007, G2019S); conditions: read-out: Percent Control
T18 construct: purchased Eurofins DiscoverX

kinome (kinase panel) [19] = target: T19, kinome (kinase panel) (Homo sapiens, UniProt Q8TD19); conditions: NEK9; 1000 nM; read-out: Percent Control
T19 construct: purchased Eurofins DiscoverX

kinome (kinase panel) [20] = target: T20, kinome (kinase panel) (Homo sapiens, UniProt P51817); conditions: PRKX; 1000 nM; read-out: Percent Control
T20 construct: purchased Eurofins DiscoverX

kinome (kinase panel) [21] = target: T21, kinome (kinase panel) (Homo sapiens, UniProt Q8N752); conditions: CSNK1A1L; 1000 nM; read-out: Percent Control
T21 construct: purchased Eurofins DiscoverX

kinome (kinase panel) [22] = target: T22, kinome (kinase panel) (Homo sapiens, UniProt P00533, DEL746-750); conditions: EGFR(E746-A750del); 1000 nM; read-out: Percent Control
T22 construct: purchased Eurofins DiscoverX
T22 sequence (P00533 with tags, fused parts or gaps DEL746-750): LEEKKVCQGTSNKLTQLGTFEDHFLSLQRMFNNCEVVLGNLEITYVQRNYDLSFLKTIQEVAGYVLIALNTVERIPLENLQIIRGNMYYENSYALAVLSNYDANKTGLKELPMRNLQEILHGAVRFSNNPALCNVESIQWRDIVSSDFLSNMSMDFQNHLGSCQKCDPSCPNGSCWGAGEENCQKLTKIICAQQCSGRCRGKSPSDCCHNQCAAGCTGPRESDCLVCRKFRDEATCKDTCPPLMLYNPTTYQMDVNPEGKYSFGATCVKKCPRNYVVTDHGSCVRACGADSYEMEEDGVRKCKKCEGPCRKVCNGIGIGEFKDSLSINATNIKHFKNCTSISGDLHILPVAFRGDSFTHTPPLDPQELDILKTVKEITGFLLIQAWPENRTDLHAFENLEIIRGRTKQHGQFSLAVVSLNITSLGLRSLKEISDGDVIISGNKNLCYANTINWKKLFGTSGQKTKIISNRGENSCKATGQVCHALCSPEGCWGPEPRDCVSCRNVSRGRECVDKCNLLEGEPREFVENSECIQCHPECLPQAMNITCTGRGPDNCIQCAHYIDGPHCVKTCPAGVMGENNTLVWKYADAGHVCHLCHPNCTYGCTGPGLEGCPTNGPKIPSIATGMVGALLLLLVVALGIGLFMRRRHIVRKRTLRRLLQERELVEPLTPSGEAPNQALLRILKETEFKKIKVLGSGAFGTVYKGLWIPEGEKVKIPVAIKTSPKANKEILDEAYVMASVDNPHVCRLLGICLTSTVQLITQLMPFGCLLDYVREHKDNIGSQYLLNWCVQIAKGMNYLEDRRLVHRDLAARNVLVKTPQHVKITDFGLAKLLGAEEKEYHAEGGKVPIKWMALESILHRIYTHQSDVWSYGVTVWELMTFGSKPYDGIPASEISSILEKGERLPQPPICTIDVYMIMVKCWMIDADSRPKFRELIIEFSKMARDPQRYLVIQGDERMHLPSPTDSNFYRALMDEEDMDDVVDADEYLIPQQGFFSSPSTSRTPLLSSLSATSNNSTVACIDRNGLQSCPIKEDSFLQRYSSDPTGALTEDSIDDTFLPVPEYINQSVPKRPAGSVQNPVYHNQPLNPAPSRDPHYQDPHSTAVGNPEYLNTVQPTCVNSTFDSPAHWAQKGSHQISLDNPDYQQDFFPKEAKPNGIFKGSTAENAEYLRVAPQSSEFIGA

kinome (kinase panel) [23] = target: T23, kinome (kinase panel) (Homo sapiens, UniProt Q86UE8); conditions: TLK2; 1000 nM; read-out: Percent Control
T23 construct: purchased Eurofins DiscoverX
T23 sequence (Q86UE8 whole entry): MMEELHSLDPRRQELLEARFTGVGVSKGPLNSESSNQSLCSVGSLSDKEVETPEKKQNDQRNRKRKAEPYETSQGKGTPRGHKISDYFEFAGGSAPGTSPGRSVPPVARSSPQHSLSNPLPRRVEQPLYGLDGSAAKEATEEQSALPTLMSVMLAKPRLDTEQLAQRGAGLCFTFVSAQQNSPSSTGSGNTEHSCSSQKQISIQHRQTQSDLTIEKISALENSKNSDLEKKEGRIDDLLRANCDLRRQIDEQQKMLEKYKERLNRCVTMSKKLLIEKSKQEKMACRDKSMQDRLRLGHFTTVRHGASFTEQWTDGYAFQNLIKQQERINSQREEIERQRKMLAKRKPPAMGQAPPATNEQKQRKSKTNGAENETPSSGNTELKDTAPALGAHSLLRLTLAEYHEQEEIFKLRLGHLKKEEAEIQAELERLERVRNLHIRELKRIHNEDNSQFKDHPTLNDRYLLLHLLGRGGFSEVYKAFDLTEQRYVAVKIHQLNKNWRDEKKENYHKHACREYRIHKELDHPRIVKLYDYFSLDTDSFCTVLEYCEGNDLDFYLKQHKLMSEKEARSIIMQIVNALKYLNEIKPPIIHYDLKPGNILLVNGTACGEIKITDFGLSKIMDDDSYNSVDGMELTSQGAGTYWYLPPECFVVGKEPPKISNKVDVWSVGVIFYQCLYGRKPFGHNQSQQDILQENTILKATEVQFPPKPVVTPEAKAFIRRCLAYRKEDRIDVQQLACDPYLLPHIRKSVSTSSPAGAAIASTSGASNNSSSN

kinome (kinase panel) [24] = target: T24, kinome (kinase panel) (Homo sapiens, UniProt P80192); conditions: MLK1 (Entrez MAP3K9); 1000 nM; read-out: Percent Control
T24 construct: purchased Eurofins DiscoverX

kinome (kinase panel) [25] = target: T25, kinome (kinase panel) (Homo sapiens, UniProt P57078); conditions: RIPK4; 1000 nM; read-out: Percent Control
T25 construct: purchased Eurofins DiscoverX
T25 sequence (P57078 whole entry): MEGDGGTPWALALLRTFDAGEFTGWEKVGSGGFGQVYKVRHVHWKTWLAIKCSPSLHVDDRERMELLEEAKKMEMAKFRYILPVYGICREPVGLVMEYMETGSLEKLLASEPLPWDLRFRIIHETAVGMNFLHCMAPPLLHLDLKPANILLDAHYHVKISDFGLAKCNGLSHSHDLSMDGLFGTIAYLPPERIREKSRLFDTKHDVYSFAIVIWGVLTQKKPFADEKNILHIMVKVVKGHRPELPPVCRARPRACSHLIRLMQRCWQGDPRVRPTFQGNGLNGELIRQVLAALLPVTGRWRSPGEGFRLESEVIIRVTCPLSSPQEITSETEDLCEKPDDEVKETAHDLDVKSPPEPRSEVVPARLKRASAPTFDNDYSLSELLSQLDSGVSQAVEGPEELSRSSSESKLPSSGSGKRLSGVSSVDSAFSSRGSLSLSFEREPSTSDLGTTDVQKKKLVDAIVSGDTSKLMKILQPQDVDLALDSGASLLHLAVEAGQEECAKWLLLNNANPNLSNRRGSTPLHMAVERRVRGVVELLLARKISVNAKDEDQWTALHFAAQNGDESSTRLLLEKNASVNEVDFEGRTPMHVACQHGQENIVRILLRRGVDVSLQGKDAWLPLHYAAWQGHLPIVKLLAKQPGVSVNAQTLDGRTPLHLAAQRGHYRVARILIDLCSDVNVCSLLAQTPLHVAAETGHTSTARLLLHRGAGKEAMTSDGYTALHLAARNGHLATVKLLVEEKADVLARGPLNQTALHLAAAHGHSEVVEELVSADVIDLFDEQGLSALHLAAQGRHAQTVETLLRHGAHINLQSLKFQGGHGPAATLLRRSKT

kinome (kinase panel) [26] = target: T26, kinome (kinase panel) (Homo sapiens, UniProt P00519, Y253F); conditions: read-out: Percent Control
T26 construct: purchased Eurofins DiscoverX

kinome (kinase panel) [27] = target: T27, kinome (kinase panel) (Homo sapiens, UniProt P00533, DEL752-759); conditions: EGFR(S752-I759del); 1000 nM; read-out: Percent Control
T27 construct: purchased Eurofins DiscoverX

kinome (kinase panel) [28] = target: T28, kinome (kinase panel) (Homo sapiens, UniProt P42336, E545A); conditions: read-out: Percent Control
T28 construct: purchased Eurofins DiscoverX

kinome (kinase panel) [29] = target: T29, kinome (kinase panel) (Homo sapiens, UniProt Q96PY6); conditions: NEK1; 1000 nM; read-out: Percent Control
T29 construct: purchased Eurofins DiscoverX

kinome (kinase panel) [30] = target: T30, kinome (kinase panel) (Homo sapiens, UniProt O43293); conditions: DAPK3; 1000 nM; read-out: Percent Control
T30 construct: purchased Eurofins DiscoverX

kinome (kinase panel) [31] = target: T31, kinome (kinase panel) (Homo sapiens, UniProt P57058); conditions: HUNK; 1000 nM; read-out: Percent Control
T31 construct: purchased Eurofins DiscoverX

kinome (kinase panel) [32] = target: T32, kinome (kinase panel) (Homo sapiens, UniProt P51813); conditions: BMX; 1000 nM; read-out: Percent Control
T32 construct: purchased Eurofins DiscoverX
T32 sequence (P51813 whole entry): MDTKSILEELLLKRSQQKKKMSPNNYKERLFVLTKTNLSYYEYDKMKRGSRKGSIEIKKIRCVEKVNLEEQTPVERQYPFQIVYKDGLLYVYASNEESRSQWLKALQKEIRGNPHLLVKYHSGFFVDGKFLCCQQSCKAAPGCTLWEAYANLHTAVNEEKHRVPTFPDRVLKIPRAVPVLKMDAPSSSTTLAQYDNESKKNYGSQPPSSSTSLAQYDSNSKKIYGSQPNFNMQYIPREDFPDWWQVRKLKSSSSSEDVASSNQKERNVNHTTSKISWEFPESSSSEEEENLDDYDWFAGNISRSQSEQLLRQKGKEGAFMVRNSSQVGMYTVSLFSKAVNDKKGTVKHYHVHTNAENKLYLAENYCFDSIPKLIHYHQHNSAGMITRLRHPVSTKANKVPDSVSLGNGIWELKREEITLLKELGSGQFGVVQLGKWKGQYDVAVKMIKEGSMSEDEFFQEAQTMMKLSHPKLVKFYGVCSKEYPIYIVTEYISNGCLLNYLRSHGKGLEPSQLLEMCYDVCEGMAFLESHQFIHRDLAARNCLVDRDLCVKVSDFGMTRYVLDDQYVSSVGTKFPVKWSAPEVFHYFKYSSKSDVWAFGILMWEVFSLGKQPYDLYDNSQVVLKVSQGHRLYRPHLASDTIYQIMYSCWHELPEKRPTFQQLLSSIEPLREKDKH

kinome (kinase panel) [33] = target: T33, kinome (kinase panel) (Homo sapiens, UniProt Q99759); conditions: MAP3K3; 1000 nM; read-out: Percent Control
T33 construct: purchased Eurofins DiscoverX

## CN(C)C(=O)c1cc2cnc(Nc3ccc(-c4csc5c(=O)cc(N6CCOCC6)oc45)cc3)nc2n1C1CCCC1 [SRX3177]
Kinome (kinase panel) [1]
  remaining binding at 1 µM: 100%
Kinome (kinase panel) [2]
  remaining binding at 1 µM: 100%
Kinome (kinase panel) [3]
  remaining binding at 1 µM: 100%
Kinome (kinase panel) [4]
  remaining binding at 1 µM: 21%
Kinome (kinase panel) [5]
  remaining binding at 1 µM: 45%
Kinome (kinase panel) [6]
  remaining binding at 1 µM: 28%
Kinome (kinase panel) [7]
  remaining binding at 1 µM: 100%
Kinome (kinase panel) [8]
  remaining binding at 1 µM: 100%
Kinome (kinase panel) [9]
  remaining binding at 1 µM: 100%
Kinome (kinase panel) [10]
  remaining binding at 1 µM: 87%
Kinome (kinase panel) [11]; CDK4-cyclinD1
  remaining binding at 1 µM: 0.9%
Kinome (kinase panel) [11]; CDK4-cyclinD3
  remaining binding at 1 µM: 1.1%
Kinome (kinase panel) [11]; CDK4
  remaining binding at 1 µM: 18%
Kinome (kinase panel) [12]
  remaining binding at 1 µM: 40%
Kinome (kinase panel) [13]
  remaining binding at 1 µM: 100%
Kinome (kinase panel) [14]
  remaining binding at 1 µM: 41%
Kinome (kinase panel) [15]
  remaining binding at 1 µM: 66%
Kinome (kinase panel) [16]
  remaining binding at 1 µM: 59%
Kinome (kinase panel) [17]
  remaining binding at 1 µM: 46%
Kinome (kinase panel) [18]
  remaining binding at 1 µM: 44%
Kinome (kinase panel) [19]
  remaining binding at 1 µM: 100%
Kinome (kinase panel) [20]
  remaining binding at 1 µM: 96%
Kinome (kinase panel) [21]
  remaining binding at 1 µM: 100%
Kinome (kinase panel) [22]
  remaining binding at 1 µM: 72%
Kinome (kinase panel) [23]
  remaining binding at 1 µM: 100%
Kinome (kinase panel) [24]
  remaining binding at 1 µM: 62%
Kinome (kinase panel) [25]
  remaining binding at 1 µM: 58%
Kinome (kinase panel) [26]
  remaining binding at 1 µM: 72%
Kinome (kinase panel) [27]
  remaining binding at 1 µM: 100%
Kinome (kinase panel) [28]
  remaining binding at 1 µM: 82%
Kinome (kinase panel) [29]
  remaining binding at 1 µM: 100%
Kinome (kinase panel) [30]
  remaining binding at 1 µM: 100%
Kinome (kinase panel) [31]
  remaining binding at 1 µM: 100%
Kinome (kinase panel) [32]
  remaining binding at 1 µM: 77%
Kinome (kinase panel) [33]
  remaining binding at 1 µM: 58%
